The text below walks through data of article PMC11177969, “Comprehensive Analyses of the Effects of the Small-Molecule Inhibitor of the UHM Domain in the Splicing Factor U2AF1 in Leukemia Cells” (Research Square, 2024).

A word on the IC50: it is the concentration needed to halve the response being measured.

For one test, the target named is T1, SPF45-UHM (Homo sapiens, UniProt Q96I25).
T1 sequence (Q96I25 306-385 limits assumed): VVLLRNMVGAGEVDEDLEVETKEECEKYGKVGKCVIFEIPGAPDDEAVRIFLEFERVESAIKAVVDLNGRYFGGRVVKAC
As to the kind of experiment: HTRF assay. In kind it is binding. The note with it: Fig. 2C; SD of 2 independent experiments in parentheses. From the text:
(§1) To determine the selectivity of SF1–8 against other homologous UHM domains, we measured the IC50 values of SF1–8 to RBM39-UHM, SPF45-UHM and PUF60-UHM using the HTRF assay.[42] […] In the chemical synthesis (Scheme S1), methylation on the pyrazole group in SF1–8 can occur at the N8 or N9 position (Fig.2C). Although the NMR spectra can be used to infer the methyl group position on the pyrazole, we determined the crystal structure of a SF1–8 precursor to clearly confirm the methyl group is at N9 in SF1–8 (Fig.2C). To further probe the interaction of SF1–8 with U2AF1-UHM, we synthesized SF1–8 analogs and developed the structure activity relationship (SAR) (Fig.2C). […] A longer alkyl group was tolerated at the N8 position but not at the N9 position. […] The crystal structure of a 7c precursor experimentally determined from SCXRD again confirmed the location of the propyl group (Fig. 2C).
(In TR-FRET formats the signal depends on donor and acceptor labels being close together.)

A further test has as its target T2, PUF60-UHM (Homo sapiens, UniProt Q9UHX1).
T2 sequence (Q9UHX1 462-549 limits assumed): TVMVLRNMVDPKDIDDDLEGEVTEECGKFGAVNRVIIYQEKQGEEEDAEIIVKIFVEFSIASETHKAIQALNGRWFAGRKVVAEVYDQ
As to the kind of experiment: HTRF assay. In kind it is binding. The note with it: Fig. 2C.
From the text: as §1

The target of another test is T3, RBM39-UHM (Homo sapiens, UniProt Q14498).
T3 sequence (Q14498 445-508 limits assumed): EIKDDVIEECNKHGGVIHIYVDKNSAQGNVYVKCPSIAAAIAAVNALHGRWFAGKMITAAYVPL
As to the kind of experiment: HTRF assay. The test is classed as binding. The note with it: Fig. 2C; SD of 2 independent experiments in parentheses.
From the text: as §1

For another test, the target named is T4, U2AF1-UHM (Homo sapiens, UniProt Q01081).
T4 construct: we screened the CCG fragment library from University of Michigan against the U2AF1-UHM domain using the Thermal Shift Assay (TSA)
T4 sequence (Q01081 65-147 limits assumed): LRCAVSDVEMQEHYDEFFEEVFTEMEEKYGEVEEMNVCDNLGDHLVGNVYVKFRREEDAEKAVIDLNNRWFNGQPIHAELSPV
As to the kind of experiment: HTRF assay, inhibition of binding between U2AF1-UHM and U2AF2-ULM. Particulars: Fig. 2C; SD of 2 independent experiments in parentheses; read-out: IC50 U2AF1. The text has this:
TSA data provided no information of the binding site in U2AF1-UHM. To identify the binding sites of both hits to U2AF1-UHM, we synthesized CCG211578 (named Hit1/SF1–8) and CCG210084 (named Hit2/9 in Fig.2C) and asked if they inhibited the binding between U2AF1-UHM and U2AF2-ULM using our previously developed HTRF assay.[42] […] The IC50 values of SF1–8 and Hit2 correlated with the ΔTm values observed in TSA. We have reported that the conserved Trp binding site in U2AF1-UHM dominated the binding affinity between U2AF2-ULM and U2AF1-UH.[42]

Another test concerns K562-U2AF1^S34F. Details: method as in PMID 33689684. Particulars: cited from earlier work.

SMILES strings stand for the structures. Some results are limits rather than exact numbers.

Take `CCC1(c2cc(O)nn2C)CCNCC1` [8e]: the IC50 on SPF45-UHM came to 179 µM; against PUF60-UHM, 592 µM; on RBM39-UHM, 335 µM; at U2AF1-UHM, 46.5 µM.
Turning to `Cn1nc(O)cc1C1(C)CCNCC1` [8a], the IC50 was 473 µM at SPF45-UHM, 550 µM on PUF60-UHM and over 1000 µM at RBM39-UHM.
Take `CC(C)n1nc(C2(C)CCNCC2)cc1O` [7d]: the IC50 on SPF45-UHM is 694 µM; against PUF60-UHM, 1090 µM; on RBM39-UHM, 791 µM; at U2AF1-UHM, 863 µM.
In the same order, the values of `CCn1nc(C2(C)CCNCC2)cc1O` [7b] are 958 µM, 910 µM, over 1000 µM and 467 µM.
As to `CC1(C)C2CCC(CN=C(N)CSS(=O)(=O)O)C1C2` (stereo not drawn) [NSC194308], in the test on K562-U2AF1^S34F, the “fold lower IC50 value in K562-U2AF^S34F than in K562-U2AF1^wt” value is 2–3 fold; the “selectivity between K562-U2AF1^S34F and K562-U2AF1^wt” value is listed as 2 fold.
With `CCn1nc(O)cc1C1(C)CCNCC1` [8b], the IC50 on SPF45-UHM was 799 µM; against PUF60-UHM it was over 1000 µM; at RBM39-UHM, over 1000 µM; at U2AF1-UHM it was 232 µM.
